What was measured:
oat, wild [1] = assay: Test C postemergence; format: in vivo, Avena fatua; details: 10 days, 0 to 100 scale (0 no effect, 100 complete control)
Outline: (§1)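 Seeds in loam–sand blend received preemergence directed soil spray of test chemicals in non-phytotoxic solvent with surfactant; postemergence treatment was applied at one- to two-leaf stage (2–10 cm). After 10 days in greenhouse, injury rated visually versus untreated controls, 0 (no effect) to 100 (complete control).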

kochia [2] = assay: Test C preemergence; format: in vivo, Bassia scoparia
Outline: as §1

pigweed, palmer [3] = assay: Test C postemergence; format: in vivo, Amaranthus palmeri; details: 10 days, 0 to 100 scale (0 no effect, 100 complete control)
Outline: as §1

galium = assay: Test C postemergence; format: in vivo, Galium aparine; details: 10 days, 0 to 100 scale (0 no effect, 100 complete control)
Outline: as §1

blackgrass [4] = assay: Test C postemergence; format: in vivo, Alopecurus myosuroides; details: 10 days, 0 to 100 scale (0 no effect, 100 complete control)
Outline: as §1

corn [5] = assay: Test C postemergence; format: in vivo, Zea mays; details: 10 days, 0 to 100 scale (0 no effect, 100 complete control)
Outline: as §1

green foxtail [6] = assay: Test C preemergence; format: in vivo, Setaria viridis
Outline: as §1

ducksalad = assay: Test D flooded paddy test; format: in vivo, Heteranthera limosa; details: 250 g ai/ha, applied to paddy water, visual rating after 13 to 14 days, scale 0 to 100 (0 no effect, 100 complete control)
Outline: (§2)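 Post-flood water application at the 2-leaf stage; 3 cm flood depth kept constant; visual control rating 0–100 after 13–14 days greenhouse growth.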

ragweed [7] = assay: Test C postemergence; format: in vivo, Ambrosia artemisiifolia; details: 10 days, 0 to 100 scale (0 no effect, 100 complete control)
Outline: as §1

blackgrass [8] = assay: Test C preemergence; format: in vivo, Alopecurus myosuroides
Outline: as §1

wheat [9] = assay: Test C postemergence; format: in vivo, Triticum aestivum; details: 10 days, 0 to 100 scale (0 no effect, 100 complete control)
Outline: as §1

soybean [10] = assay: Test C postemergence; format: in vivo, Glycine max; details: 10 days, 0 to 100 scale (0 no effect, 100 complete control)
Outline: as §1

oat, wild [11] = assay: Test C preemergence; format: in vivo, Avena fatua
Outline: as §1

green foxtail [12] = assay: Test C postemergence; format: in vivo, Setaria viridis; details: 10 days, 0 to 100 scale (0 no effect, 100 complete control)
Outline: as §1

barnyardgrass [13] = assay: Test D flooded paddy test; format: in vivo, Echinochloa crus-galli; details: 250 g ai/ha, applied to paddy water, visual rating after 13 to 14 days, scale 0 to 100 (0 no effect, 100 complete control)
Outline: as §2

wheat [14] = assay: Test C preemergence; format: in vivo, Triticum aestivum
Outline: as §1

corn [15] = assay: Test C preemergence; format: in vivo, Zea mays
Outline: as §1

ragweed [16] = assay: Test C preemergence; format: in vivo, Ambrosia artemisiifolia
Outline: as §1

sedge, umbrella = assay: Test D flooded paddy test; format: in vivo, Cyperus difformis; details: 250 g ai/ha, applied to paddy water, visual rating after 13 to 14 days, scale 0 to 100 (0 no effect, 100 complete control)
Outline: as §2

rice = assay: Test D flooded paddy test; format: in vivo, Oryza sativa; details: 250 g ai/ha, applied to paddy water, visual rating after 13 to 14 days, scale 0 to 100 (0 no effect, 100 complete control)
Outline: as §2

barnyardgrass [17] = assay: Test C preemergence; format: in vivo, Echinochloa crusgalli
Outline: as §1

soybean [18] = assay: Test C preemergence; format: in vivo, Glycine max
Outline: as §1

kochia [19] = assay: Test C postemergence; format: in vivo, Bassia scoparia; details: 10 days, 0 to 100 scale (0 no effect, 100 complete control)
Outline: as §1

ryegrass, Italian [20] = assay: Test C preemergence; format: in vivo, Lolium multiflorum
Outline: as §1

horseweed = assay: Test C postemergence; format: in vivo, Erigeron canadensis; details: 10 days, 0 to 100 scale (0 no effect, 100 complete control)
Outline: as §1

barnyardgrass [21] = assay: Test C postemergence; format: in vivo, Echinochloa crusgalli; details: 10 days, 0 to 100 scale (0 no effect, 100 complete control)
Outline: as §1

pigweed, palmer [22] = assay: Test C preemergence; format: in vivo, Amaranthus palmeri
Outline: as §1

ryegrass, Italian [23] = assay: Test C postemergence; format: in vivo, Lolium multiflorum; details: 10 days, 0 to 100 scale (0 no effect, 100 complete control)
Outline: as §1

[24] = 500 g ai/ha, preemergence, 0 to 100 scale (0 no effect, 100 complete control)
[25] = Preemergence, 125 g ai/ha, 0 to 100 scale, 0 no effect, 100 complete control

COC[C@H]1CN(C(=O)c2cc(-n3cnc(C(C)(C)C)n3)cc3c2OCCO3)c2cccc(Cl)c2O1 [Compound 382]
80: Plant response rating, Kochia (kochia [2]; [25]) | Oat, Wild plant response rating (oat, wild [11]; [24]) | Soybean plant response rating (soybean [18]; [24]) | Plant response rating, Ryegrass, Italian (ryegrass, Italian [20]; [25])
15: Plant response rating, Ducksalad (Flood) (ducksalad) | Plant response rating, Rice (Flood) (rice)
10: Plant response rating, Blackgrass (blackgrass [4]; Postemergence, 125 g ai/ha) | Plant response rating, Blackgrass (blackgrass [8]; [25]) | Plant response rating, Corn (corn [15]; [25])
25: Plant response rating, Sedge, Umbrella (Flood) (sedge, umbrella)
20: Plant response rating, Corn (corn [5]; Postemergence, 125 g ai/ha) | Plant response rating, Wheat (wheat [9]; Postemergence, 125 g ai/ha) | Plant response rating, Oat, Wild (oat, wild [11]; [25]) | Plant response rating, Foxtail, Green (green foxtail [12]; Postemergence, 125 g ai/ha)
100: Kochia plant response rating (kochia [2]; [24]) | Plant response rating, Pigweed, Palmer (pigweed, palmer [3]; 500 g ai/ha, postemergence) | Plant response rating, Pigweed, Palmer (pigweed, palmer [3]; Postemergence, 125 g ai/ha) | Plant response rating, Galium (galium; 500 g ai/ha, postemergence) | Plant response rating, Galium (galium; Postemergence, 125 g ai/ha) | Foxtail, Green plant response rating (green foxtail [6]; [24]) | Plant response rating, Soybean (soybean [10]; 500 g ai/ha, postemergence) | Plant response rating, Soybean (soybean [10]; Postemergence, 125 g ai/ha) | Ragweed plant response rating (ragweed [16]; [24]) | Barnyardgrass plant response rating (barnyardgrass [17]; [24]) | Plant response rating, Kochia (kochia [19]; 500 g ai/ha, postemergence) | Ryegrass, Italian plant response rating (ryegrass, Italian [20]; [24]) | Pigweed, Palmer plant response rating (pigweed, palmer [22]; [24]) | Plant response rating, Pigweed, Palmer (pigweed, palmer [22]; [25])
50: Plant response rating, Corn (corn [5]; 500 g ai/ha, postemergence) | Blackgrass plant response rating (blackgrass [8]; [24]) | Plant response rating, Barnyardgrass (Flood) (barnyardgrass [13]) | Plant response rating, Barnyardgrass (barnyardgrass [17]; [25]) | Plant response rating, Horseweed (horseweed; 500 g ai/ha, postemergence) | Plant response rating, Horseweed (horseweed; Postemergence, 125 g ai/ha) | Plant response rating, Barnyardgrass (barnyardgrass [21]; 500 g ai/ha, postemergence)
30: Plant response rating, Barnyardgrass (barnyardgrass [21]; Postemergence, 125 g ai/ha)
60: Plant response rating, Foxtail, Green (green foxtail [12]; 500 g ai/ha, postemergence) | Plant response rating, Ragweed (ragweed [16]; [25]) | Plant response rating, Soybean (soybean [18]; [25]) | Plant response rating, Ryegrass, Italian (ryegrass, Italian [23]; 500 g ai/ha, postemergence)
90: Plant response rating, Foxtail, Green (green foxtail [6]; [25]) | Plant response rating, Ragweed (ragweed [7]; 500 g ai/ha, postemergence) | Plant response rating, Ragweed (ragweed [7]; Postemergence, 125 g ai/ha) | Plant response rating, Kochia (kochia [19]; Postemergence, 125 g ai/ha)
70: Corn plant response rating (corn [15]; [24])
0: Plant response rating, Oat, Wild (oat, wild [1]; 500 g ai/ha, postemergence) | Plant response rating, Oat, Wild (oat, wild [1]; Postemergence, 125 g ai/ha) | Plant response rating, Wheat (wheat [14]; [25])
40: Plant response rating, Blackgrass (blackgrass [4]; 500 g ai/ha, postemergence) | Plant response rating, Wheat (wheat [9]; 500 g ai/ha, postemergence) | Wheat plant response rating (wheat [14]; [24]) | Plant response rating, Ryegrass, Italian (ryegrass, Italian [23]; Postemergence, 125 g ai/ha)

From patent US20260262643A1, “HERBICIDAL BENZOXAZINES” (FMC CORPORATION, priority 2022, published 2026)
